Counter-ions that a name gives are not always drawn.
What was measured:
[1] = system: tumour cells from lymph nodes; assay: Effects of L-aC on cell cycle of cultured secondary human tumour cells; format: cell-based; details: 20 mg/ml
Procedure: L-aC was tested on tumour cells from lymph nodes taken from the same patients from which the primitive neoplasms had been taken.

[2] = system: Cells from Larynx Carcinoma Explant; assay: In vitro short-term chemosensitivity assay (MTT); format: cell-based, human
Procedure: The effects of L-aC on cells from 4 primitive epidermoid carcinomas of the larynx and 1 primitive undifferentiated carcinoma of the nasopharynx were tested.
Tissue fragments from the tumour mass were mechanically dissociated in Hank's solutions adding an antibiotic and an antifungal to obtain a cell monosuspension free of agglomerates. The resulting suspension was centrifuged at 1200 rpm for 5 minutes and the pellet was resuspended in MEM culture medium supplemented with 10% of patient serum, to obtain a concentration of 10^5 cells/ml. Subsequently, 180 μl of the resulting suspension were dispensed in microplate wells and incubated under 5% CO2 atmosphere at 37° C. for 3 days. After that, the antitumor medicaments were added in the amount of 20 μl for each well, at a concentration of 0.1×, 1× and 10× the maximum serum concentrations that can usually be reached in clinical practice. 24 h after the beginning of the exposure to the antitumour medicament, 100 μl of MTT were added, and after 4 h, a further 150 μl of dimethylsulfoxide were added.
The optical density was evaluated by a Uniscan microspectrophotometer with a […] wavelength filter. Cytotoxicity was evaluated as percentage of the optical density of the treated sample compared with the optical density of the control.
Bleomycin (BLEC), […] (CDDP), 5-fluoruracil (5-FU), vincristine (VCR), epidoxorubicin (Epi-Dx) and methotrexate (MTX) were tested for comparison purposes.
L-aC was tested at the following concentrations: 0.2-2-20 mg/ml.
In vitro short-term chemosensitivity assay (according to Hill and coll.)
(Cell Vitality Percentage After Exposure to the Antitumoral)—Raw Data
(Cells from Larynx Carcinoma Explant)

[3] = system: Yoshida tumour; assay: Chemopreventive effects on Yoshida tumour inoculation and thriving; format: in vivo, Sprague-Dowley rats; details: for animals showing ascites: day 8 after inoculation; for animals free from the disease and still alive: day 27 of observation
Procedure: In order to elucidate the actual chemoprevention antitumour Potentialities of L-aC, 125 Sprague-Dowley rats (4 months old, mean weight: 200 g), under standard feeding and temperature conditions (25° C.), were divided in 5 groups and treated as follows:
Group 1: 25 rats were intraperitoneally treated, on alternate days for 10 days, with 25 mg of L-aC diluted in 5 ml of saline solution. On day 10 they were inoculated with Yoshida tumour.
Group 2: 25 rats were intraperitoneally treated, on alternate days for 10 days, with 25 mg of L-aC diluted in 5 ml of saline solution. On day 10 they were inoculated with Yoshida tumour. Starting from day 11, they were further treated intraperitoneally, on alternate days, with 25 mg of L-aC diluted in 5 ml of saline solution, for a further 10 days.
Group 3: 25 previously untreated rats were inoculated, on day 10, with Yoshida tumour. Starting from day 14 they were intraperitoneally treated, on alternate days, with 25 mg of L-aC diluted in 5 ml of saline solution for 10 days.
Group 4: 25 previously untreated rats were inoculated on day 10 with Yoshida tumour. On day 18 to 24 they were intraperitoneally treated, on alternate days, with 25 mg of L-aC diluted in 5 ml of saline solution for 10 days.
Group 5: 25 previously untreated rats were inoculated on day 10 with Yoshida tumour. On day 18 to 24 they were subjected to emptying, on alternate days, of 5 ml of ascitic fluid which was substituted with 50 mg of L-aC diluted in 5 ml of saline solution.
The onset and evolution of the tumour were checked by daily observation and weighing.

SMILES: CC(=O)OC(CC(=O)[O-])C[N+](C)(C)C [L-aC, L-acetylcarnitine hydrochloride]
- activity versus that on cells from the primitive tumours ([1]; all samples): comparable
- G1/S+G2M ratio after treatment ([1]; tumour with pre-treatment ratio 20/80): 74/26
- Cell Vitality Percentage After Exposure ([2]; Table 2 explant, 0.1x): 62%
- Cell Vitality Percentage After Exposure ([2]; Table 2 explant, 1x): 32%
- Cell Vitality Percentage After Exposure ([2]; Table 2 explant, 10x): 15%
- Cell Vitality Percentage After Exposure ([2]; Table 3 explant, 0.1x): 42%
- Cell Vitality Percentage After Exposure ([2]; Table 3 explant, 1x): 24%
- Cell Vitality Percentage After Exposure ([2]; Table 3 explant, 10x): 7.2%
- Cell Vitality Percentage After Exposure ([2]; Table 4 explant, 0.1x): 3.8%
- Cell Vitality Percentage After Exposure ([2]; Table 4 explant, 1x): 1.5%
- Cell Vitality Percentage After Exposure ([2]; Table 4 explant, 10x): 1.4%
- Cell Vitality Percentage After Exposure ([2]; Table 5 explant, 0.1x): 63%
- Cell Vitality Percentage After Exposure ([2]; Table 5 explant, 1x): 37%
- Cell Vitality Percentage After Exposure ([2]; Table 5 explant, 10x): 32%
- necroscopy finding ([3]; 6 animals sacrified at end of observation): no presence of the disease
- animals showing ascites ([3]; Group 1 (25 mg L-aC i.p. alternate days 10 days before inoculation)): 4/25
- surviving animals ([3]; Group 1, 25 mg L-aC i.p. alternate days for 10 days, inoculated day 10, day 01 of observation): 25
- surviving animals ([3]; Group 1, 25 mg L-aC i.p. alternate days for 10 days, inoculated day 10, day 03): 25
- surviving animals ([3]; Group 1, 25 mg L-aC i.p. alternate days for 10 days, inoculated day 10, day 05): 25
- surviving animals ([3]; Group 1, 25 mg L-aC i.p. alternate days for 10 days, inoculated day 10, day 07): 25
- surviving animals ([3]; Group 1, 25 mg L-aC i.p. alternate days for 10 days, inoculated day 10, day 09): 25
- surviving animals ([3]; Group 1, 25 mg L-aC i.p. alternate days for 10 days, inoculated day 10, day 10): 25
- surviving animals ([3]; Group 1, 25 mg L-aC i.p. alternate days for 10 days, inoculated day 10, day 11): 25
- surviving animals ([3]; Group 1, 25 mg L-aC i.p. alternate days for 10 days, inoculated day 10, day 14): 25
- surviving animals ([3]; Group 1, 25 mg L-aC i.p. alternate days for 10 days, inoculated day 10, day 18): 25
- surviving animals ([3]; Group 1, 25 mg L-aC i.p. alternate days for 10 days, inoculated day 10, day 21): 20
- surviving animals ([3]; Group 1, 25 mg L-aC i.p. alternate days for 10 days, inoculated day 10, day 24): 15
- surviving animals ([3]; Group 1, 25 mg L-aC i.p. alternate days for 10 days, inoculated day 10, day 27): 13
- surviving animals ([3]; Group 1, 25 mg L-aC i.p. alternate days for 10 days, inoculated day 10, day 30): 13
- surviving animals ([3]; Group 1, 25 mg L-aC i.p. alternate days for 10 days, inoculated day 10, day 45): 13
- animals free from the disease and still alive ([3]; Group 1, of 21 ascites-free animals): 13
- animals with late ascites that died ([3]; Group 1, of 21 ascites-free animals, within day 27 of observation): 8
- day of observation by which ascitic animals died ([3]; Group 1, the 4 animals with ascites): ≤ 26 days
- animals showing ascites ([3]; Group 2 (25 mg L-aC i.p. alternate days 10 days before and 10 days after inoculation)): 5/25
- surviving animals ([3]; Group 2, 25 mg L-aC i.p. alternate days 10 days before and 10 days after inoculation (day 10), day 01 of observation): 25
- surviving animals ([3]; Group 2, 25 mg L-aC i.p. alternate days 10 days before and 10 days after inoculation (day 10), day 03): 25
- surviving animals ([3]; Group 2, 25 mg L-aC i.p. alternate days 10 days before and 10 days after inoculation (day 10), day 05): 25
- surviving animals ([3]; Group 2, 25 mg L-aC i.p. alternate days 10 days before and 10 days after inoculation (day 10), day 07): 25
- surviving animals ([3]; Group 2, 25 mg L-aC i.p. alternate days 10 days before and 10 days after inoculation (day 10), day 09): 25
- surviving animals ([3]; Group 2, 25 mg L-aC i.p. alternate days 10 days before and 10 days after inoculation (day 10), day 10): 25
- surviving animals ([3]; Group 2, 25 mg L-aC i.p. alternate days 10 days before and 10 days after inoculation (day 10), day 11): 25
- surviving animals ([3]; Group 2, 25 mg L-aC i.p. alternate days 10 days before and 10 days after inoculation (day 10), day 14): 25
- surviving animals ([3]; Group 2, 25 mg L-aC i.p. alternate days 10 days before and 10 days after inoculation (day 10), day 18): 25
- surviving animals ([3]; Group 2, 25 mg L-aC i.p. alternate days 10 days before and 10 days after inoculation (day 10), day 21): 21
- surviving animals ([3]; Group 2, 25 mg L-aC i.p. alternate days 10 days before and 10 days after inoculation (day 10), day 24): 21
- surviving animals ([3]; Group 2, 25 mg L-aC i.p. alternate days 10 days before and 10 days after inoculation (day 10), day 27): 21
- surviving animals ([3]; Group 2, 25 mg L-aC i.p. alternate days 10 days before and 10 days after inoculation (day 10), day 30): 21
- surviving animals ([3]; Group 2, 25 mg L-aC i.p. alternate days 10 days before and 10 days after inoculation (day 10), day 45): 21
- animals free from the disease and still alive ([3]; Group 2, of 20 ascites-free animals): 18
- animals with late ascites that died ([3]; Group 2, of 20 ascites-free animals, within day 27): 2
